Among the data in the supplement of paper PMC10307832 are relative viability values, retold here.

Test in all cases: relative viability (nuclei count vs DMSO), 5 days (fraction); higher = more cells survive
Compound in the test “Nelarabine + Decitabine”: COc1nc(N)nc2c1ncn2[C@@H]1O[C@H](CO)[C@@H](O)[C@@H]1O [Nelarabine] + Nc1ncn([C@H]2C[C@H](O)[C@@H](CO)O2)c(=O)n1 [Decitabine] (partner 2 µM)
In a few lines: (§1)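 A single step with final 0.05% Triton X-100, 1% formaldehyde and 1 ug/ml Hoechst fixed the cells and stained nuclei 5 days after treatment. Lung cancer cell lines in 1536-well plates had been treated by pin tool the day after seeding with one drug alone or a fixed anchor-drug dose plus five library-drug doses (not always all listed) in √10 steps, and nuclei were counted on 4× images. Relative viability is the ratio of nuclei in treated wells to nuclei in vehicle wells, taken as the median of duplicate plates.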

Compound in the test “Adavosertib + Lapatinib”: C=CCn1c(=O)c2cnc(Nc3ccc(N4CCN(C)CC4)cc3)nc2n1-c1cccc(C(C)(C)O)n1 [Adavosertib] + CS(=O)(=O)CCNCc1ccc(-c2ccc3ncnc(Nc4ccc(OCc5cccc(F)c5)c(Cl)c4)c3c2)o1 [Lapatinib] (partner 2 µM)
In short, it runs like this: as §1

Compound in the test “Nelarabine + Crizotinib”: COc1nc(N)nc2c1ncn2[C@@H]1O[C@H](CO)[C@@H](O)[C@@H]1O [Nelarabine] + C[C@@H](Oc1cc(-c2cnn(C3CCNCC3)c2)cnc1N)c1c(Cl)ccc(F)c1Cl [Crizotinib] (partner 1 µM)
In a few lines: as §1

Compound in the test “Nelarabine + Olaparib”: COc1nc(N)nc2c1ncn2[C@@H]1O[C@H](CO)[C@@H](O)[C@@H]1O [Nelarabine] + O=C(c1cc(Cc2n[nH]c(=O)c3ccccc23)ccc1F)N1CCN(C(=O)C2CC2)CC1 [Olaparib] (partner 8 µM)
In short, it runs like this:
as §1

With PC-14, the relative viability is 0.225 with Nelarabine + Decitabine (first compound 0.01 µM); 0.231 with Nelarabine + Decitabine (first compound 0.03162 µM); 0.202 with Nelarabine + Decitabine (first compound 0.1 µM); 0.219 with Nelarabine + Decitabine (first compound 0.3162 µM); 0.224 in the test with Nelarabine + Decitabine (first compound 1 µM); 0.344 in the test with Adavosertib + Lapatinib (first compound 0.01 µM). Besides, the relative viability was found to be 0.319 with Adavosertib + Lapatinib (first compound 0.03162 µM); 0.297 with Adavosertib + Lapatinib (first compound 0.1 µM); 0.407 with Adavosertib + Lapatinib (first compound 0.3162 µM); 0.909 in the test with Nelarabine + Crizotinib (first compound 0.01 µM); 0.89 with Nelarabine + Crizotinib (first compound 0.03162 µM); 0.875 with Nelarabine + Crizotinib (first compound 0.1 µM). Moreover, the relative viability with Nelarabine + Crizotinib (first compound 0.3162 µM) amounted to 0.832; with Nelarabine + Crizotinib (first compound 1 µM), 0.868; with Nelarabine + Olaparib (first compound 0.01 µM), 0.265; with Nelarabine + Olaparib (first compound 0.03162 µM) it was 0.205; with Nelarabine + Olaparib (first compound 0.1 µM), 0.31; with Nelarabine + Olaparib (first compound 0.3162 µM), 0.251. Moreover, the relative viability with Nelarabine + Olaparib (first compound 1 µM) was found to be 0.294.

As to RERF-LC-KJ, the relative viability with Nelarabine + Decitabine (first compound 0.01 µM) is 0.764; with Nelarabine + Decitabine (first compound 0.03162 µM), 0.639; in the test with Nelarabine + Decitabine (first compound 0.1 µM), 0.705; with Nelarabine + Decitabine (first compound 0.3162 µM) it was 0.699; with Nelarabine + Decitabine (first compound 1 µM) it was 0.711; in the test with Adavosertib + Lapatinib (first compound 0.01 µM) it was 0.915. The relative viability in the test with Adavosertib + Lapatinib (first compound 0.03162 µM) amounted to 0.826; in the test with Adavosertib + Lapatinib (first compound 0.1 µM), 0.89; with Adavosertib + Lapatinib (first compound 0.3162 µM), 0.825; with Nelarabine + Crizotinib (first compound 0.01 µM), 0.871; with Nelarabine + Crizotinib (first compound 0.03162 µM) it was 0.954; with Nelarabine + Crizotinib (first compound 0.1 µM), 0.82. Also, the relative viability was 0.846 with Nelarabine + Crizotinib (first compound 0.3162 µM); 0.902 with Nelarabine + Crizotinib (first compound 1 µM); 0.946 in the test with Nelarabine + Olaparib (first compound 0.01 µM); 1 with Nelarabine + Olaparib (first compound 0.03162 µM); 1.11 in the test with Nelarabine + Olaparib (first compound 0.1 µM); 0.987 in the test with Nelarabine + Olaparib (first compound 0.3162 µM). Also, the relative viability with Nelarabine + Olaparib (first compound 1 µM) turned out to be 0.852.

Consider SK-LU-1, for which the relative viability worked out at 0.815 with Nelarabine + Decitabine (first compound 0.01 µM); 0.574 in the test with Nelarabine + Decitabine (first compound 0.03162 µM); 0.638 in the test with Nelarabine + Decitabine (first compound 0.1 µM); 0.822 in the test with Nelarabine + Decitabine (first compound 0.3162 µM); 0.597 in the test with Nelarabine + Decitabine (first compound 1 µM); 0.857 with Adavosertib + Lapatinib (first compound 0.01 µM). Besides, the relative viability in the test with Adavosertib + Lapatinib (first compound 0.03162 µM) was 0.834; in the test with Adavosertib + Lapatinib (first compound 0.1 µM) it was 0.787; with Adavosertib + Lapatinib (first compound 0.3162 µM) it was 0.281; with Nelarabine + Crizotinib (first compound 0.01 µM), 1.27; with Nelarabine + Crizotinib (first compound 0.03162 µM), 0.518; with Nelarabine + Crizotinib (first compound 0.1 µM), 1.04. Also, the relative viability in the test with Nelarabine + Crizotinib (first compound 0.3162 µM) worked out at 1.01; with Nelarabine + Crizotinib (first compound 1 µM) it was 0.994; with Nelarabine + Olaparib (first compound 0.01 µM) it was 0.524; with Nelarabine + Olaparib (first compound 0.03162 µM) it was 0.314; with Nelarabine + Olaparib (first compound 0.1 µM), 0.5; with Nelarabine + Olaparib (first compound 0.3162 µM), 0.505. Also, the relative viability with Nelarabine + Olaparib (first compound 1 µM) was determined as 0.397.

For the cell line SK-MES-1, the relative viability in the test with Nelarabine + Decitabine (first compound 0.01 µM) came out at 0.359; with Nelarabine + Decitabine (first compound 0.03162 µM), 0.347; with Nelarabine + Decitabine (first compound 0.1 µM), 0.375; in the test with Nelarabine + Decitabine (first compound 0.3162 µM) it was 0.422; with Nelarabine + Decitabine (first compound 1 µM), 0.35; in the test with Adavosertib + Lapatinib (first compound 0.01 µM), 0.45. The relative viability with Adavosertib + Lapatinib (first compound 0.03162 µM) was 0.43; with Adavosertib + Lapatinib (first compound 0.1 µM), 0.476; in the test with Adavosertib + Lapatinib (first compound 0.3162 µM), 0.389; with Nelarabine + Crizotinib (first compound 0.01 µM), 1.07; with Nelarabine + Crizotinib (first compound 0.03162 µM) it was 0.922; in the test with Nelarabine + Crizotinib (first compound 0.1 µM) it was 0.961. The relative viability with Nelarabine + Crizotinib (first compound 0.3162 µM) stood at 1.05; with Nelarabine + Crizotinib (first compound 1 µM) it was 1.1; with Nelarabine + Olaparib (first compound 0.01 µM), 0.819; in the test with Nelarabine + Olaparib (first compound 0.03162 µM) it was 0.66; with Nelarabine + Olaparib (first compound 0.1 µM) it was 0.707; in the test with Nelarabine + Olaparib (first compound 0.3162 µM) it was 0.773. In the test with Nelarabine + Olaparib (first compound 1 µM), the relative viability was 0.762.

As for SW 1573, the relative viability with Nelarabine + Decitabine (first compound 0.01 µM) turned out to be 0.582; with Nelarabine + Decitabine (first compound 0.03162 µM) it was 0.503; in the test with Nelarabine + Decitabine (first compound 0.1 µM), 0.513; with Nelarabine + Decitabine (first compound 0.3162 µM), 0.58; with Nelarabine + Decitabine (first compound 1 µM), 0.483; with Adavosertib + Lapatinib (first compound 0.01 µM) it was 1.22. Also, the relative viability in the test with Adavosertib + Lapatinib (first compound 0.03162 µM) worked out at 1.36; with Adavosertib + Lapatinib (first compound 0.1 µM), 1.14; with Adavosertib + Lapatinib (first compound 0.3162 µM), 1.08; with Nelarabine + Crizotinib (first compound 0.01 µM), 0.788; in the test with Nelarabine + Crizotinib (first compound 0.03162 µM) it was 0.769; with Nelarabine + Crizotinib (first compound 0.1 µM), 0.745. Besides, the relative viability stood at 0.733 in the test with Nelarabine + Crizotinib (first compound 0.3162 µM); 0.717 with Nelarabine + Crizotinib (first compound 1 µM); 0.52 with Nelarabine + Olaparib (first compound 0.01 µM); 0.469 with Nelarabine + Olaparib (first compound 0.03162 µM); 0.553 with Nelarabine + Olaparib (first compound 0.1 µM); 0.565 with Nelarabine + Olaparib (first compound 0.3162 µM). In the test with Nelarabine + Olaparib (first compound 1 µM), the relative viability came out at 0.66.

As to UMC-11, the relative viability with Nelarabine + Decitabine (first compound 0.01 µM) amounted to 0.71; with Nelarabine + Decitabine (first compound 0.03162 µM) it was 0.551; with Nelarabine + Decitabine (first compound 0.1 µM), 0.578; with Nelarabine + Decitabine (first compound 0.3162 µM), 0.589; with Nelarabine + Decitabine (first compound 1 µM) it was 0.61; with Adavosertib + Lapatinib (first compound 0.01 µM), 0.939. The relative viability was 0.999 with Adavosertib + Lapatinib (first compound 0.03162 µM); 0.851 with Adavosertib + Lapatinib (first compound 0.1 µM); 1.28 with Adavosertib + Lapatinib (first compound 0.3162 µM); 0.52 with Nelarabine + Crizotinib (first compound 0.01 µM); 0.499 with Nelarabine + Crizotinib (first compound 0.03162 µM); 0.476 with Nelarabine + Crizotinib (first compound 0.1 µM). The relative viability with Nelarabine + Crizotinib (first compound 0.3162 µM) worked out at 0.652; in the test with Nelarabine + Crizotinib (first compound 1 µM), 0.495; with Nelarabine + Olaparib (first compound 0.01 µM), 0.36; with Nelarabine + Olaparib (first compound 0.03162 µM) it was 0.469; with Nelarabine + Olaparib (first compound 0.1 µM), 0.356; with Nelarabine + Olaparib (first compound 0.3162 µM), 0.386. For the same cell line, in the test with Nelarabine + Olaparib (first compound 1 µM), the relative viability was 0.357.
